Source: ChEMBL document CHEMBL4765474, “Discovery of a "Gatekeeper" Antagonist that Blocks Entry Pathway to Retinoid X Receptors (RXRs) without Allosteric Ligand Inhibition in Permissive RXR Heterodimers” (J Med Chem, 2021)
pKd, pKi: −log10 of the molar value.

How the values were obtained:
[1] = molecular target: T1, Retinoic acid receptor RXR-alpha (Homo sapiens, UniProt P19793); assay: Competitive antagonist activity at human RXRA/RXRA expressed in African green monkey COS7 cells assessed as reduction in bexarotene-induced receptor activation by RXRE-dependent luciferase reporter gene assay; format: cell-based; conditions: read-out: pA2 (converted)
T1 sequence (P19793 whole entry): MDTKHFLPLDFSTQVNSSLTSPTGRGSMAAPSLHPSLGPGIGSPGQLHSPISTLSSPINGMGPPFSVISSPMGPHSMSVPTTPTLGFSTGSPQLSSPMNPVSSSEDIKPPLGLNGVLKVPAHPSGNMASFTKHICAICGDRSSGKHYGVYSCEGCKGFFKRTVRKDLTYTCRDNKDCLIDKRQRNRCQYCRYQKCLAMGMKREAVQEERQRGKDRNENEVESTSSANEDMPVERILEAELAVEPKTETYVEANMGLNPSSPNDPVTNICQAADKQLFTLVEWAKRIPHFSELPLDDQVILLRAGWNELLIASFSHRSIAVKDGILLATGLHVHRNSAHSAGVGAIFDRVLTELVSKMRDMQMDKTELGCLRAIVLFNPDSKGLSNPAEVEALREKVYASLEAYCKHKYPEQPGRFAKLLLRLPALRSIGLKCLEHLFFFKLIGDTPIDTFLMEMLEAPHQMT

RXR alpha/PPAR gamma = RXR alpha/PPAR gamma (Homo sapiens, UniProt P19793); assay: Competitive antagonist activity at human PPAR-gamma/RXRA expressed in African green monkey COS7 cells assessed as reduction in bexarotene-induced receptor activation by RXRE-dependent luciferase reporter gene assay; format: cell-based; conditions: read-out: pA2 (converted)
Chain of RXR alpha/PPAR gamma (P37231 whole entry, one chain of several): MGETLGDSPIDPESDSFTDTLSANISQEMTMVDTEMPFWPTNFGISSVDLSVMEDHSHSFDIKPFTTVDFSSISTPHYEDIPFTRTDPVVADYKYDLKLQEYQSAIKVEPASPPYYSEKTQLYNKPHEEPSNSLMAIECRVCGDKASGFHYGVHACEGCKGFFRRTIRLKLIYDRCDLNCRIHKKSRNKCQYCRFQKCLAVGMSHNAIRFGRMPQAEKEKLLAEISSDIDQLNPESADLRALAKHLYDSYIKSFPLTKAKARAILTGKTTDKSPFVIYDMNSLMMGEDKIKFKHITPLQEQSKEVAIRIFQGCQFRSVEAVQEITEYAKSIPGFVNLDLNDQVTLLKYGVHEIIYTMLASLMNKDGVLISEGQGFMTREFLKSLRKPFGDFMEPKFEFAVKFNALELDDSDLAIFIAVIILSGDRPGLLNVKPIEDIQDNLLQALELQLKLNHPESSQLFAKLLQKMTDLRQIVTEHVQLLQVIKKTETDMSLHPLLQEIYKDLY

[2] = molecular target: T2, Retinoic acid receptor RXR-alpha/oxysterols receptor LXR-alpha (Homo sapiens, UniProt P19793); assay: Competitive antagonist activity at human LXR-alpha/RXRA expressed in African green monkey COS7 cells assessed as reduction in bexarotene-induced receptor activation by RXRE-dependent luciferase reporter gene assay; format: cell-based; conditions: read-out: pA2 (converted)
T2 sequence (P19793 whole entry): T1 sequence (P19793 whole entry)
T2 sequence (Q13133 whole entry): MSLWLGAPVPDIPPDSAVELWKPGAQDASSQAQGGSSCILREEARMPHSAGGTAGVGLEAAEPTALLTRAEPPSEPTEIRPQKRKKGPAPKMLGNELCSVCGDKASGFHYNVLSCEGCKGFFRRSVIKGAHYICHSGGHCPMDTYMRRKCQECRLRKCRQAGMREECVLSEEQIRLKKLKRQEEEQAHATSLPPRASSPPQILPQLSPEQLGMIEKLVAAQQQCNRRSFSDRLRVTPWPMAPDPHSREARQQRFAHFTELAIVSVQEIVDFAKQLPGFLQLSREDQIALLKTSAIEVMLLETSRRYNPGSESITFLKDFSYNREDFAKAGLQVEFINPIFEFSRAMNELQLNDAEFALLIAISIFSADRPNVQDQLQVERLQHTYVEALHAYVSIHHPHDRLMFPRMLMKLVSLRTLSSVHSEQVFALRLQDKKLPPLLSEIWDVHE

[3] = molecular target: T1, Retinoic acid receptor RXR-alpha; assay: Binding affinity to human RXR-alpha LBD incubated for 2 hrs by tryptophan fluorescence quenching assay
[4] = molecular target: T1, Retinoic acid receptor RXR-alpha; assay: Displacement of [3H]-9-cis retinoic acid from recombinant human RXR-alpha LBD by liquid scintillation counting based competitive ligand binding assay
[5] = molecular target: T1, Retinoic acid receptor RXR-alpha; assay: Binding affinity to human RXR-alpha by ITC analysis

CCCCCCOc1cc2c(cc1N(C)c1ncc(C(=O)O)cn1)C(C)(C)CCC2(C)C was tested, and the Kb [1] was 63.1 nM, the Kb (RXR alpha/PPAR gamma) was 10 nM and the Kb [2] was 302 nM. It also gave a pKd [3] of 6.59, a pKi [4] of 5.87 and a pKd [5] of 5.87.
